# In patent US9701959B2, “High throughput screen for biologically active polypeptides” (Invenra Inc., priority 2012, dated 2017):
# Ends that are not written are not given here.
# Key:
# E. coli MG1655 = test: Minimal Inhibitory Concentration (MIC) in E. coli, Alamar Blue, hit validation; format: cell-based; conditions: MIC at 18 hrs in E. coli; overnight at 35° C., triplicate
# Method: Equipment: • Absorption and fluorescence plate reader—Tecan Safire • CO2 Incubator
# Reagents: • Six chemically synthesized peptides—Biosynthesis Inc. • E. coli MG1655 (ATCC) • LB media (Sigma-Aldrich) • Alamar Blue assay kit (Life Tech)
# 3) Start an overnight culture of E. coli MG1655 in 5 mL of LB and grow at 37° C. with shaking at 200 rpm. 4) In the morning dilute overnight culture to OD600=0.00075 in 10 mL LB+1 mL Alamar Blue Stain. 5) Make seven (7), 1:2 serial dilutions of each peptide starting at […] in a final volume of 70 μL of PBS. 6) Add 20 μL of serial dilution of peptides in triplicate to a white small volume 96-well plate. Add 20 μl of PBS alone to the 8th well. 7) Add 120 μL of E. coli/Alamar blue dilution to each of the test wells. 8) Incubate overnight (18 hrs) at 35° C.
# [1] = tested on: NF-κB-Jurkat cells (GFP reporter construct for NF-kappa-B); test: Single bead bioactivity testing in 1536-well microtiter plate (GFP fluorescence); format: cell-based; conditions: 1 and 2 beads per well, 4,800 cells per well, 18 hours at 37 C
# Method: Equipment: • Cell culture incubator (Fisher Scientific) • Microplate reader (Tecan Safire) • Black, clear bottom, 1536-well microtiter plate (Corning)
# 1) Dilute NF-κB-Jurkat cells to 4×10^6 cells/ml using the supplemented RPMI 1640 growth media.
# 2) Prepare the 1536 well for the following layout:
# 3) Add 7. μl of supplemented RMPI 1640 media to all wells labeled “M” in the plate layout above.
# 4) Create the following cell master mix:
# 5) Add 3 μl of the cell master mix to the wells labeled “A” and “B” so that when the test and control beads are added the final number of cells is 4,800 per well.
# 6) Dilute the TNF-bead and Control-beads in supplemented RPMI 1640 to 1-2 beads per 2 μl.
# 7) Add 2 μl of TNF-beads to the wells of the plate labeled “A” and add 2 μl of the control-beads to the wells of the plate labeled “B”.
# 8) Incubate the plate for 18 hours at 37 C and 5% CO2.
# 9) Measure the GFP fluorescence of each well using the Tecan Safire plate reader.
# The experiment was performed to determine if a single bead could be used to screen for activity of a protein that induces a cell-reporter in a microtiter plate. 1536 well plates were used to decrease the volume in which the assay was performed. Control beads consisting of a scFv antibody fragment were generated using the same protocol as the tested TNF-beads. The control beads were used to establish a baseline signal for the assay. […]
Compound,Ave MIC (E. coli MG1655) [µM],GFP signal relative to baseline (control beads) [1]
CC[C@H](C)[C@H](NC(=O)CN)C(=O)NCC(=O)N[C@@H](C)C(=O)N[C@H](C(=O)N[C@@H](CC(C)C)C(=O)N[C@@H](CCCCN)C(=O)N[C@H](C(=O)N[C@@H](CC(C)C)C(=O)N[C@H](C(=O)N[C@H](C(=O)NCC(=O)N[C@@H](CC(C)C)C(=O)N1CCC[C@H]1C(=O)N[C@H](C(=O)N[C@@H](CC(C)C)C(=O)N[C@H](C(=O)N[C@@H](CO)C(=O)N[C@@H](Cc1c[nH]c2ccccc12)C(=O)N[C@H](C(=O)N[C@@H](CCCCN)C(=O)N[C@@H](CO)C(=O)N[C@@H](CCCCN)C(=O)N[C@@H](CCCNC(=N)N)C(=O)N[C@@H](CCC(N)=O)C(=O)N[C@@H](CCCCN)C(=O)O)[C@@H](C)CC)[C@@H](C)CC)[C@@H](C)O)[C@@H](C)O)[C@@H](C)O)C(C)C)C(C)C [Hit 1],12,–
"GIGAIAKVLSTGLPRLISWIKGKRIR [Cont 2, reference compound]",15,–
GIGALIKVLTTGLPMLISWIKRKRNK [Hit 2],14,–
"GIGATVKVLSTGLRFLISWIKRKRKY [Cont 1, reference compound]",>30,–
"GIGAVLKVLGTGLPALISWIKFKRFP [Cont 3, reference compound]",>30,–
GIGAWTKVLTTGLPGLISWIKRKRLR [Hit 3],20,–
"TNF-beads: His-tag, spacer, TEV cleavage site, spacer, and the soluble form of TNF-alpha, SEQ ID NO: 14, on beads",–,increased signal over the baseline
